Source: PubChem BioAssay (NCI)
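Cultured in 96-well plates, cells were exposed to test compound for 48 hours across five concentrations. Here, GI50 denotes the concentration required for 50% inhibition of growth. TGI denotes the concentration required for complete inhibition of growth.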

How the values were obtained:
Experiment in all cases: DTP human tumour cell line panel, 48 h
SK-MEL-28 melanoma = test system: SK-MEL-28 melanoma
HCC-2998 colon = test system: HCC-2998 colon
NCI-H23 lung = test system: NCI-H23 lung
RPMI-8226 leukemia = test system: RPMI-8226 leukemia
NCI/ADR-RES ovarian = test system: NCI/ADR-RES ovarian
SNB-75 CNS = test system: SNB-75 CNS
786-0 renal = test system: 786-0 renal
KM12 colon = test system: KM12 colon
OVCAR-8 ovarian = test system: OVCAR-8 ovarian
HS 578T breast = test system: HS 578T breast
HT29 colon = test system: HT29 colon
DU-145 prostate = test system: DU-145 prostate
OVCAR-4 ovarian = test system: OVCAR-4 ovarian
HOP-92 NSCLC = test system: HOP-92 NSCLC
OVCAR-5 ovarian = test system: OVCAR-5 ovarian
IGROV1 ovarian = test system: IGROV1 ovarian
HOP-62 NSCLC = test system: HOP-62 NSCLC
SF-268 CNS = test system: SF-268 CNS
T-47D breast = test system: T-47D breast
NCI-H226 lung = test system: NCI-H226 lung
ACHN renal = test system: ACHN renal
PC-3 prostate = test system: PC-3 prostate
SR leukemia = test system: SR leukemia
SNB-19 CNS = test system: SNB-19 CNS
MOLT-4 leukemia = test system: MOLT-4 leukemia
SW-620 colon = test system: SW-620 colon
UACC-62 melanoma = test system: UACC-62 melanoma
SF-295 CNS = test system: SF-295 CNS
K-562 leukemia = test system: K-562 leukemia
U251 CNS = test system: U251 CNS
CCRF-CEM leukemia = test system: CCRF-CEM leukemia
SF-539 CNS = test system: SF-539 CNS
SK-MEL-5 melanoma = test system: SK-MEL-5 melanoma
A549 NSCLC = test system: A549 NSCLC
MDA-MB-435 = test system: MDA-MB-435
M14 melanoma = test system: M14 melanoma
COLO 205 colon = test system: COLO 205 colon
TK-10 renal = test system: TK-10 renal
EKVX NSCLC = test system: EKVX NSCLC
MALME-3M melanoma = test system: MALME-3M melanoma
SN12C renal = test system: SN12C renal
A498 renal = test system: A498 renal
OVCAR-3 ovarian = test system: OVCAR-3 ovarian
HCT-116 colon = test system: HCT-116 colon
MDA-MB-231 breast = test system: MDA-MB-231 breast
CAKI-1 renal = test system: CAKI-1 renal
NCI-H460 lung = test system: NCI-H460 lung
UACC-257 melanoma = test system: UACC-257 melanoma
NCI-H522 lung = test system: NCI-H522 lung
BT-549 breast = test system: BT-549 breast
SK-OV-3 ovarian = test system: SK-OV-3 ovarian
UO-31 renal = test system: UO-31 renal
HL-60(TB) leukemia = test system: HL-60(TB) leukemia
SK-MEL-2 melanoma = test system: SK-MEL-2 melanoma
HCT-15 colon = test system: HCT-15 colon
RXF 393 renal = test system: RXF 393 renal
LOX IMVI melanoma = test system: LOX IMVI melanoma
MCF7 breast = test system: MCF7 breast

## C=C1C(=O)O[C@H]2[C@H]1CC/C(Cn1cc(-c3ccc(OC)cc3)nn1)=C\CC[C@@]1(C)O[C@@H]21
SK-MEL-28 melanoma
  GI50: 0.822 µM
  TGI: 2.41 µM
HCC-2998 colon
  GI50: 1.98 µM
  TGI: 3.64 µM
NCI-H23 lung
  GI50: 2.06 µM
  TGI: 4.58 µM
RPMI-8226 leukemia
  GI50: 1.87 µM
  TGI: 5.15 µM
NCI/ADR-RES ovarian
  GI50: 3.08 µM
  TGI: 12.4 µM
SNB-75 CNS
  GI50: 1.47 µM
  TGI: 3.28 µM
786-0 renal
  GI50: 1.24 µM
  TGI: 2.65 µM
KM12 colon
  GI50: 3.51 µM
  TGI: 14.2 µM
OVCAR-8 ovarian
  GI50: 2.59 µM
  TGI: 7.67 µM
HS 578T breast
  GI50: 7.42 µM
  TGI: 36.9 µM
HT29 colon
  GI50: 1.23 µM
  TGI: 2.86 µM
DU-145 prostate
  GI50: 1.11 µM
  TGI: 2.32 µM
OVCAR-4 ovarian
  GI50: 1.52 µM
  TGI: 3.33 µM
HOP-92 NSCLC
  GI50: 1.13 µM
  TGI: 2.69 µM
OVCAR-5 ovarian
  GI50: 1.71 µM
  TGI: 3.66 µM
IGROV1 ovarian
  GI50: 1.35 µM
  TGI: 3.27 µM
HOP-62 NSCLC
  GI50: 10.5 µM
  TGI: 23.1 µM
SF-268 CNS
  GI50: 2.07 µM
  TGI: 5.23 µM
T-47D breast
  GI50: 1.43 µM
  TGI: 3.08 µM
NCI-H226 lung
  GI50: 1.99 µM
  TGI: 4.45 µM
ACHN renal
  GI50: 0.293 µM
  TGI: 1.12 µM
PC-3 prostate
  GI50: 9.35 µM
  TGI: 22.2 µM
SR leukemia
  GI50: 0.257 µM
  TGI: 1.48 µM
SNB-19 CNS
  GI50: 6.92 µM
  TGI: 21.4 µM
MOLT-4 leukemia
  GI50: 1.13 µM
  TGI: 3.66 µM
SW-620 colon
  GI50: 0.498 µM
  TGI: 1.74 µM
UACC-62 melanoma
  GI50: 1.35 µM
  TGI: 2.99 µM
SF-295 CNS
  GI50: 11 µM
  TGI: 23.7 µM
K-562 leukemia
  GI50: 1.3 µM
  TGI: 6.87 µM
U251 CNS
  GI50: 9.45 µM
  TGI: 21.5 µM
CCRF-CEM leukemia
  GI50: 0.29 µM
  TGI: 0.823 µM
SF-539 CNS
  GI50: 0.346 µM
  TGI: 1.49 µM
SK-MEL-5 melanoma
  GI50: 2.1 µM
  TGI: 4.69 µM
A549 NSCLC
  GI50: 10.9 µM
  TGI: 24.4 µM
MDA-MB-435
  GI50: 1.14 µM
  TGI: 3.24 µM
M14 melanoma
  GI50: 1.3 µM
  TGI: 3.09 µM
COLO 205 colon
  GI50: 0.504 µM
  TGI: 1.95 µM
TK-10 renal
  GI50: 1.42 µM
  TGI: 2.85 µM
EKVX NSCLC
  GI50: 2.47 µM
  TGI: 10.3 µM
MALME-3M melanoma
  GI50: 1.67 µM
  TGI: 3.4 µM
SN12C renal
  GI50: 1.96 µM
  TGI: 5.27 µM
A498 renal
  GI50: 2.35 µM
  TGI: 11.3 µM
OVCAR-3 ovarian
  GI50: 0.569 µM
  TGI: 1.8 µM
HCT-116 colon
  GI50: 0.488 µM
  TGI: 1.79 µM
MDA-MB-231 breast
  GI50: 1.44 µM
  TGI: 3.15 µM
CAKI-1 renal
  GI50: 1.03 µM
  TGI: 3.63 µM
NCI-H460 lung
  GI50: 8.45 µM
  TGI: 25.2 µM
UACC-257 melanoma
  GI50: 1.78 µM
  TGI: 3.85 µM
NCI-H522 lung
  GI50: 0.387 µM
  TGI: 1.73 µM
BT-549 breast
  GI50: 1.31 µM
  TGI: 2.89 µM
SK-OV-3 ovarian
  GI50: 16.3 µM
  TGI: 29.9 µM
UO-31 renal
  GI50: 1.27 µM
  TGI: 2.64 µM
HL-60(TB) leukemia
  GI50: 1.17 µM
  TGI: 3.86 µM
SK-MEL-2 melanoma
  GI50: 1.95 µM
  TGI: 4.61 µM
HCT-15 colon
  GI50: 0.338 µM
  TGI: 1.38 µM
RXF 393 renal
  GI50: 0.703 µM
  TGI: 2.02 µM
LOX IMVI melanoma
  GI50: 1.16 µM
  TGI: 2.51 µM

## COc1ccc(-c2cnnc3c(-c4cccc(C(F)(F)F)c4)cnn23)cc1
SK-MEL-28 melanoma
  GI50: 3.14 µM
  TGI: > 100 µM
MCF7 breast
  GI50: > 100 µM
  TGI: > 100 µM
HCC-2998 colon
  GI50: > 100 µM
  TGI: > 100 µM
NCI-H23 lung
  GI50: 4.26 µM
  TGI: > 100 µM
RPMI-8226 leukemia
  GI50: 2.72 µM
  TGI: > 100 µM
NCI/ADR-RES ovarian
  GI50: 3.05 µM
  TGI: > 100 µM
SNB-75 CNS
  GI50: 1.51 µM
  TGI: 4.6 µM
786-0 renal
  GI50: 2.76 µM
  TGI: > 100 µM
KM12 colon
  GI50: > 100 µM
  TGI: > 100 µM
OVCAR-8 ovarian
  GI50: 3.33 µM
  TGI: > 100 µM
HS 578T breast
  GI50: 4.11 µM
  TGI: > 100 µM
DU-145 prostate
  GI50: 3.97 µM
  TGI: > 100 µM
HOP-92 NSCLC
  TGI: 2.85 µM
OVCAR-5 ovarian
  GI50: > 100 µM
  TGI: > 100 µM
IGROV1 ovarian
  GI50: 1.97 µM
  TGI: > 100 µM
HOP-62 NSCLC
  GI50: 2.72 µM
  TGI: 13.1 µM
SF-268 CNS
  GI50: 1.78 µM
  TGI: 7.4 µM
T-47D breast
  GI50: 6.37 µM
  TGI: > 100 µM
NCI-H226 lung
  GI50: 2.64 µM
  TGI: > 100 µM
ACHN renal
  GI50: 3.52 µM
  TGI: > 100 µM
PC-3 prostate
  GI50: 6.22 µM
  TGI: > 100 µM
SR leukemia
  GI50: > 100 µM
  TGI: > 100 µM
SNB-19 CNS
  GI50: 2.45 µM
  TGI: 7.44 µM
MOLT-4 leukemia
  GI50: > 100 µM
  TGI: > 100 µM
SW-620 colon
  GI50: > 100 µM
  TGI: > 100 µM
UACC-62 melanoma
  GI50: 4.01 µM
  TGI: > 100 µM
K-562 leukemia
  GI50: > 100 µM
  TGI: > 100 µM
U251 CNS
  GI50: 3.61 µM
  TGI: > 100 µM
CCRF-CEM leukemia
  GI50: > 100 µM
  TGI: > 100 µM
SF-539 CNS
  GI50: 3 µM
  TGI: > 100 µM
SK-MEL-5 melanoma
  GI50: 3.85 µM
  TGI: > 100 µM
A549 NSCLC
  GI50: 4.19 µM
  TGI: > 100 µM
MDA-MB-435
  GI50: 5.04 µM
  TGI: > 100 µM
M14 melanoma
  GI50: > 100 µM
  TGI: > 100 µM
COLO 205 colon
  GI50: > 100 µM
  TGI: > 100 µM
EKVX NSCLC
  GI50: 3.41 µM
  TGI: > 100 µM
SN12C renal
  GI50: 3.07 µM
  TGI: > 100 µM
A498 renal
  GI50: 3.52 µM
  TGI: 62.6 µM
OVCAR-3 ovarian
  GI50: 2.55 µM
  TGI: 6.45 µM
HCT-116 colon
  GI50: 3.46 µM
  TGI: > 100 µM
MDA-MB-231 breast
  GI50: 3.55 µM
  TGI: > 100 µM
CAKI-1 renal
  GI50: 3.3 µM
  TGI: > 100 µM
NCI-H460 lung
  GI50: 4.67 µM
  TGI: > 100 µM
UACC-257 melanoma
  GI50: 6.44 µM
  TGI: > 100 µM
NCI-H522 lung
  GI50: 3.66 µM
  TGI: > 100 µM
BT-549 breast
  GI50: 3.4 µM
  TGI: > 100 µM
SK-OV-3 ovarian
  GI50: 3.5 µM
  TGI: > 100 µM
HL-60(TB) leukemia
  GI50: > 100 µM
  TGI: > 100 µM
SK-MEL-2 melanoma
  GI50: 1.43 µM
  TGI: 79.8 µM
HCT-15 colon
  GI50: > 100 µM
  TGI: > 100 µM
RXF 393 renal
  GI50: 0.0291 µM
  TGI: 3.07 µM
LOX IMVI melanoma
  GI50: > 100 µM
  TGI: > 100 µM
